Measurements reported in patent US10208046B2, “Nitrogen-containing heterocyclic compound” (Takeda Pharmaceutical Company Limited, priority 2014, dated 2019).

Target: T1, human M1 receptor (hCHRM1) (Homo sapiens, UniProt P11229)
T1 construct: expressed in transfected cells
T1 sequence (P11229 1-460): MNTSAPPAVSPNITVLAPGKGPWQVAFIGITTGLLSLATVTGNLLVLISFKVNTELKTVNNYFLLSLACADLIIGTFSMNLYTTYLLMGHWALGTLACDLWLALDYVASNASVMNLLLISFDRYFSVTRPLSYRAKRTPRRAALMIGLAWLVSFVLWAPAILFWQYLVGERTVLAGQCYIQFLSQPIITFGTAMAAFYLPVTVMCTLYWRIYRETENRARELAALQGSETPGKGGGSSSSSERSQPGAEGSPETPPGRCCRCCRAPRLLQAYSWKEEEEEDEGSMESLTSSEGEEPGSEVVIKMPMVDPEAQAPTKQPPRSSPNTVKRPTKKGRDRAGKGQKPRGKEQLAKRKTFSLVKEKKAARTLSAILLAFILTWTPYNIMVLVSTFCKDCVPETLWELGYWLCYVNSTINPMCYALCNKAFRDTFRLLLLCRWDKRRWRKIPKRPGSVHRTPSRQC
Experiment: Measurement of M1 receptor positive allosteric modulator (M1PAM) activity, calcium fluorescence in CHO-K1 cells
Type: cell-based
Settings: for activity (%) at 10 μM: 10 μM test compound with acetylcholine at EC20, 100% = acetylcholine 1 μM, 0% = DMSO; for EC50: inflection point in the concentration-dependent curve, acetylcholine at EC20 (final 0.6-0.8 nM), CHO-K1 cells expressing human M1, Fluo-4, FLIPRtetra, read-out: IP value
Description: Measurement of M1 Receptor Positive Allosteric Modulator (M1PAM) Activity
The activity of a test compound in the presence of acetylcholine at EC20 concentration (final concentration 0.6-0.8 nM), which affords an action corresponding to about 20% of the maximum activity, was measured as PAM activity. The method is as follows. CHO-K1 cells stably expressing a human M1 receptor (hCHRM1) were plated on a 384-well black clear bottom plate (BD Falcon) at 5,000 cells/well, and cultured in an incubator at 37° C., 5% CO2 for 1 day. The medium in the cell plate was removed, and assay buffer A containing calcium indicator (Recording medium (DOJINDO LABORATORIES), 0.1% BSA (Wako Pure Chemical Industries, Ltd.), 2.5 μg/mL Fluo-4 AM (DOJINDO LABORATORIES), 0.08% Pluronic F127 (DOJINDO LABORATORIES), 1.25 mM probenecid (DOJINDO LABORATORIES)) was added at 30 μL/well. The cells were left standing in the incubator at 37° C., 5% CO2 for 30 min, and further left standing at room temperature for 30 min. A test compound prepared by diluting with assay buffer B (HBSS (Invitrogen), 20 mM HEPES (Invitrogen), 0.1% BSA) containing 2.4-3.2 nM acetylcholine was added at 10 μL/well, and the fluorescence was measured by FLIPRtetra (Molecular Devices) for 1 min every 1 second. With the definition that the amount of change in the fluorescence on addition of acetylcholine (final concentration 1 μM) is 100% and that on addition of DMSO instead of a test compound is 0%, the activity (%) of the test compound was calculated, and the inflection point in the concentration-dependent curve of the test compound was calculated as IP values.

| Compound | activity (%) at 10 μM [%] | EC50 [nM] |
| --- | --- | --- |
| CCn1cc(-c2ccc(CN3Cc4ncnc(OCC(C)(F)F)c4C3=O)c(F)c2)cn1 [Example 3, 4-(2,2-difluoropropoxy)-6-(4-(1-ethyl-1H-pyrazol-4-yl)-2-fluorobenzyl)-6,7-dihydro-5H-pyrrolo[3,4-d]pyrimidin-5-one] | 103 | 8.9 |
| Cc1nn(C)cc1-c1ccc(CN2Cc3ncnc(OCC(C)(C)F)c3C2=O)c(F)c1 [Example 46, 6-(4-(1,3-dimethyl-1H-pyrazol-4-yl)-2-fluorobenzyl)-4-(2-fluoro-2-methylpropoxy)-6,7-dihydro-5H-pyrrolo[3,4-d]pyrimidin-5-one] | 90 | 5.2 |
| CCC(F)(F)COc1ncnc2c1C(=O)N(Cc1ccc(-c3cnn(CC(F)(F)F)c3)cc1)C2 [Example 69, 4-(2,2-difluorobutoxy)-(4-(1-(2,2,2-trifluoroethyl)-1H-pyrazol-4-yl)benzyl)-6,7-dihydro-5H-pyrrolo[3,4-d]pyrimidin-5-one] | 88 | 9.6 |
| Cc1nn(C)cc1-c1ccc(CN2Cc3ccnc(OCC(F)(F)C(F)F)c3C2=O)cc1 [Example 18, 2-(4-(1,3-dimethyl-1H-pyrazol-4-yl)benzyl)-4-(2,2,3,3-tetrafluoropropoxy)-1,2-dihydro-3H-pyrrolo[3,4-c]pyridin-3-one] | 102 | 280 |
| CCn1cc(-c2ccc(CN3Cc4ncnc(OCC(F)F)c4C3=O)c(F)c2)cn1 [Example 4, 4-(2,2-difluoroethoxy)-6-(4-(1-ethyl-1H-pyrazol-4-yl)-2-fluorobenzyl)-6,7-dihydro-5H-pyrrolo[3,4-d]pyrimidin-5-one] | 99 | 8.7 |
| Cn1cc(-c2ccc(CN3Cc4ccnc(OCC(F)(F)F)c4C3=O)c(F)c2)cn1 [Example 87, 2-(2-fluoro-4-(1-methyl-1H-pyrazol-4-yl)benzyl)-4-(2,2,2-trifluoroethoxy)-1,2-dihydro-3H-pyrrolo[3,4-c]pyridin-3-one] | 101 | 32 |
| CCn1cc(-c2ccc(CN3Cc4ncnc(OCC(F)(F)F)c4C3=O)cc2)cn1 [Example 37, 6-(4-(1-ethyl-1H-pyrazol-4-yl)benzyl)-4-(2,2,2-trifluoroethoxy)-6,7-dihydro-5H-pyrrolo[3,4-d]pyrimidin-5-one] | 98 | 46 |
| CC(F)(F)COc1nccc2c1C(=O)N(Cc1ccc(-c3cnn(C4CC4)c3)cc1)C2 [Example 17, 2-(4-(1-cyclopropyl-1H-pyrazol-4-yl)benzyl)-4-(2,2-difluoropropoxy)-1,2-dihydro-3H-pyrrolo[3,4-c]pyridin-3-one] | 99 | 95 |
| Cn1cc(-c2ccc(CN3Cc4ccnc(OCC(F)F)c4C3=O)c(F)c2)nn1 [Example 115, 4-(2,2-difluoroethoxy)-2-(2-fluoro-4-(1-methyl-1H-1,2,3-triazol-4-yl)benzyl)-1,2-dihydro-3H-pyrrolo[3,4-c]pyridin-3-one] | 98 | 43 |
| CCn1cc(-c2ccc(CN3Cc4ccnc(OCC(F)(F)CC)c4C3=O)c(F)c2)cn1 [Example 60, 4-(2,2-difluorobutoxy)-2-(4-(1-ethyl-1H-pyrazol-4-yl)-2-fluorobenzyl)-1,2-dihydro-3H-pyrrolo[3,4-c]pyridin-3-one] | 94 | 7.4 |
| CCn1cc(-c2ccc(CN3Cc4ncnc(OCC(F)(F)CC)c4C3=O)s2)cn1 [Example 30, 4-(2,2-difluorobutoxy)-6-((5-(1-ethyl-1H-pyrazol-4-yl)-2-thienyl)methyl)-6,7-dihydro-5H-pyrrolo[3,4-d]pyrimidin-5-one] | 103 | 96 |
| Cc1nn(C)cc1-c1ccc(CN2Cc3ccnc(OCC(F)(F)F)c3C2=O)c(F)c1 [Example 88, 2-(4-(1,3-dimethyl-1H-pyrazol-4-yl)-2-fluorobenzyl)-4-(2,2,2-trifluoroethoxy)-1,2-dihydro-3H-pyrrolo[3,4-c]pyridin-3-one] | 101 | 74 |
| Cn1cc(-c2ccc(CN3Cc4ncnc(OCC(F)(F)F)c4C3=O)cc2)nn1 [Example 104, 6-(4-(1-methyl-1H-1,2,3-triazol-4-yl)benzyl)-4-(2,2,2-trifluoroethoxy)-6,7-dihydro-5H-pyrrolo[3,4-d]pyrimidin-5-one] | 95 | 61 |
| Cn1cc(-c2ccc(CN3Cc4ccnc(OCC(C)(C)F)c4C3=O)c(F)c2)cn1 [Example 81, 4-(2-fluoro-2-methylpropoxy)-2-(2-fluoro-4-(1-methyl-1H-pyrazol-4-yl)benzyl)-1,2-dihydro-3H-pyrrolo[3,4-c]pyridin-3-one] | 88 | 32 |
| Cn1cc(-c2ccc(CN3Cc4ccnc(OCC(C)(F)F)c4C3=O)c(F)c2)cn1 [Example 86, 4-(2,2-difluoropropoxy)-2-(2-fluoro-4-(1-methyl-1H-pyrazol-4-yl)benzyl)-1,2-dihydro-3H-pyrrolo[3,4-c]pyridin-3-one] | 91 | 21 |
| CCC(F)(F)COc1nccc2c1C(=O)N(Cc1ccc(-c3cn(C)nc3C)cc1F)C2 [Example 7, 4-(2,2-difluorobutoxy)-2-(4-(1,3-dimethyl-1H-pyrazol-4-yl)-2-fluorobenzyl)-1,2-dihydro-3H-pyrrolo[3,4-c]pyridin-3-one] | 90 | 9.1 |
| Cc1nn(C)cc1-c1ccc(CN2Cc3ncnc(OCC(F)F)c3C2=O)cc1 [Example 42, 4-(2,2-difluoroethoxy)-6-(4-(1,3-dimethyl-1H-pyrazol-4-yl)benzyl)-6,7-dihydro-5H-pyrrolo[3,4-d]pyrimidin-5-one] | 106 | 23 |
| Cc1nn(C)cc1-c1ccc(CN2Cc3ccnc(OCC(C)(C)F)c3C2=O)c(F)c1 [Example 82, 2-(4-(1,3-dimethyl-1H-pyrazol-4-yl)-2-fluorobenzyl)-4-(2-fluoro-2-methylpropoxy)-1,2-dihydro-3H-pyrrolo[3,4-c]pyridin-3-one] | 95 | 17 |
| CCn1cc(-c2ccc(CN3Cc4ncnc(OCC(F)F)c4C3=O)cc2)cn1 [Example 2, 4-(2,2-difluoroethoxy)-6-(4-(1-ethyl-1H-pyrazol-4-yl)benzyl)-6,7-dihydro-5H-pyrrolo[3,4-d]pyrimidin-5-one] | 108 | 31 |
| Cc1nn(C)cc1-c1ccc(CN2Cc3ncnc(OCC(C)(C)F)c3C2=O)cc1 [Example 5, 6-(4-(1,3-dimethyl-1H-pyrazol-4-yl)benzyl)-4-(2-fluoro-2-methylpropoxy)-6,7-dihydro-5H-pyrrolo[3,4-d]pyrimidin-5-one] | 105 | 17 |
| Cc1nn(C)cc1-c1ccc(CN2Cc3ncnc(OCC(F)(F)F)c3C2=O)cc1 [Example 39, 6-(4-(1,3-dimethyl-1H-pyrazol-4-yl)benzyl)-4-(2,2,2-trifluoroethoxy)-6,7-dihydro-5H-pyrrolo[3,4-d]pyrimidin-5-one] | 93 | 40 |
| CCn1cc(-c2ccc(CN3Cc4ncnc(OCC(F)(F)F)c4C3=O)c(F)c2)cn1 [Example 35, 6-(4-(1-ethyl-1H-pyrazol-4-yl)-2-fluorobenzyl)-4-(2,2,2-trifluoroethoxy)-6,7-dihydro-5H-pyrrolo[3,4-d]pyrimidin-5-one] | 98 | 27 |
| CCC(F)(F)COc1nccc2c1C(=O)N(Cc1ccc(-c3cnn(CC(F)(F)F)c3)cc1F)C2 [Example 62, 4-(2,2-difluorobutoxy)-2-(2-fluoro-4-(1-(2,2,2-trifluoroethyl)-1H-pyrazol-4-yl)benzyl)-1,2-dihydro-3H-pyrrolo[3,4-c]pyridin-3-one] | 91 | 40 |
| CC(F)(F)COc1nccc2c1C(=O)N(Cc1ccc(-c3cnn(CC(F)(F)F)c3)cc1)C2 [Example 12, 4-(2,2-difluoropropoxy)-2-(4-(1-(2,2,2-trifluoroethyl)-1H-pyrazol-4-yl)benzyl)-1,2-dihydro-3H-pyrrolo[3,4-c]pyridin-3-one] | 97 | 59 |
